Experimental data reported in patent US20060040957A1, “BICYCLIC PYRIMIDINE MATRIX METALLOPROTEINASE INHIBITORS” (priority 2001, published 2006).
Read-outs that look alike come from different tables or passages of the source.

Key:
Assay type in all cases: biochemical
[1] = target: MMP-13CD (catalytic domain of collagenase 3) (Homo sapiens, UniProt P45452); experiment: Thiopeptolide substrate hydrolysis assay, MMP-13CD; conditions: thiopeptolide substrate, HEPES pH 7.0, 22° C.
Description: (§1) Thiopeptolide substrates show virtually no decomposition or hydrolysis at or below neutral pH in the absence of a matrix metalloproteinase enzyme.

[2] = target: T1, MMP-1FL (full length interstitial collagenase) (Homo sapiens, UniProt P03956); experiment: Thiopeptolide substrate hydrolysis assay, MMP-1FL; conditions: HEPES pH 7.0, 22° C., read-out: IC50 (μM) Versus Certain MMPs: MMP-01 FL
T1 sequence (P03956 100-469): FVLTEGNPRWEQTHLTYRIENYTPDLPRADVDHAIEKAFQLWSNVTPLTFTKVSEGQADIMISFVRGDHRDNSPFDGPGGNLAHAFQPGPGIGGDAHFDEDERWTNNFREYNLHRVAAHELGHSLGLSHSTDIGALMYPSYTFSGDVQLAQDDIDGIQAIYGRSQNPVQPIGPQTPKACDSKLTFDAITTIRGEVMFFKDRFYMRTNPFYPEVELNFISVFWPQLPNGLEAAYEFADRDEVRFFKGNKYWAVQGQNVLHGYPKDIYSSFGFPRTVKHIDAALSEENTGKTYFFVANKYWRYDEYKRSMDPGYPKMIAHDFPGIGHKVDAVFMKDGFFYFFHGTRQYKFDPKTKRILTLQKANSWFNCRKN
Description: (§2) The invention compounds of Formula I have been evaluated in standard assays for their ability to inhibit the catalytic activity of various MMP enzymes.
as §1
(§3) Several representative compounds have been evaluated for their ability to inhibit various matrix metalloproteinase enzymes.

[3] = target: T2, MMP-2FL (full length Gelatinase A) (Homo sapiens, UniProt P08253); experiment: Thiopeptolide substrate hydrolysis assay, MMP-2FL; conditions: HEPES pH 7.0, 22° C., read-out: IC50 (μM) Versus Certain MMPs: MMP-02 FL
T2 sequence (P08253 110-660): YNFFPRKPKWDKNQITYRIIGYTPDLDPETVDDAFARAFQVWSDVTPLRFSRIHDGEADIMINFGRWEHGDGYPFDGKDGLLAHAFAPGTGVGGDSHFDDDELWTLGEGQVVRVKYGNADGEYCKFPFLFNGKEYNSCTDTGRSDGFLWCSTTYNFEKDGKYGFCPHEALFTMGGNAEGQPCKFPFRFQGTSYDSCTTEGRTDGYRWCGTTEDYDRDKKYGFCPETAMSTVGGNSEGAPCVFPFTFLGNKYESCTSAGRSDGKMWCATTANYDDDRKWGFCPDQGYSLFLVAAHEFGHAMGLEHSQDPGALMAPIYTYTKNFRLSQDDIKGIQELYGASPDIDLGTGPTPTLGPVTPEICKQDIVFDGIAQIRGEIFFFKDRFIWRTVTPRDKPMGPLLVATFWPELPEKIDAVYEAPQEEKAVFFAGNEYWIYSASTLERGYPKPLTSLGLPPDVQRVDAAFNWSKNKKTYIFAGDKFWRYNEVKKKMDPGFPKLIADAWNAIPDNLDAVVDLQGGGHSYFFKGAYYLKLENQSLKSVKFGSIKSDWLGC
Description: as §2, §1, §3

[4] = target: MMP-3CD (catalytic domain of stromelysin-1) (Homo sapiens, UniProt P08254); experiment: Thiopeptolide substrate hydrolysis assay, MMP-3CD; conditions: MES buffer pH 6.0, read-out: IC50 (μM) Versus Certain MMPs: MMP-03 CD
Procedure: as §2, §1, §3
It should be appreciated that the assay buffer used with MMP-3CD was 50 mM N-morpholinoethane sulfonate (−MES=) at pH 6.0 rather than the HEPES buffer at pH 7.0 described above.

[5] = target: T3, MMP-7FL (full length matrilysin) (Homo sapiens, UniProt P09237); experiment: Thiopeptolide substrate hydrolysis assay, MMP-7FL; conditions: HEPES pH 7.0, 22° C., read-out: IC50 (μM) Versus Certain MMPs: MMP-07 FL
T3 sequence (P09237 95-267): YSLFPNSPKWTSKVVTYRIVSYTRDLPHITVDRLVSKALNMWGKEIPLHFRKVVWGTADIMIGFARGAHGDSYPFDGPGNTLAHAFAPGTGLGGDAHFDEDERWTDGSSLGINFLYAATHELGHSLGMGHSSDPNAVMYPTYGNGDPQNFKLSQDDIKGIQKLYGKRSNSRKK
Description: as §2, §1, §3

[6] = target: MMP-9FL (full length Gelatinase B) (Homo sapiens, UniProt P14780); experiment: Thiopeptolide substrate hydrolysis assay, MMP-9FL; conditions: HEPES pH 7.0, 22° C., read-out: IC50 (μM) Versus Certain MMPs: MMP-09 FL
Description: as §2, §1, §3

[7] = target: MMP-14CD (catalytic domain of MMP-14) (Homo sapiens, UniProt P50281); experiment: Thiopeptolide substrate hydrolysis assay, MMP-14CD; conditions: HEPES pH 7.0, 22° C., read-out: IC50 (μM) Versus Certain MMPs: MMP-14 CD
Description: as §2, §1, §3

[8] = read-out: IC50 (μM) Versus Certain MMPs: MMP-13 CD
[9] = IC50 (μM) Versus Certain MMPs: MMP-13 CD

Chain of MMP-3CD (catalytic domain of stromelysin-1) (P08254 100-272 limits assumed): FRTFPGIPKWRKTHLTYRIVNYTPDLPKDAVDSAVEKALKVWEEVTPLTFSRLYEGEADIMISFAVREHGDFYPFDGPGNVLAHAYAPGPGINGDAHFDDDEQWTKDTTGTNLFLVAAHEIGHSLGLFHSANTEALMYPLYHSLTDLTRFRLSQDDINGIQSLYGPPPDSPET
Chain of MMP-9FL (full length Gelatinase B) (P14780 94-707, species assumed): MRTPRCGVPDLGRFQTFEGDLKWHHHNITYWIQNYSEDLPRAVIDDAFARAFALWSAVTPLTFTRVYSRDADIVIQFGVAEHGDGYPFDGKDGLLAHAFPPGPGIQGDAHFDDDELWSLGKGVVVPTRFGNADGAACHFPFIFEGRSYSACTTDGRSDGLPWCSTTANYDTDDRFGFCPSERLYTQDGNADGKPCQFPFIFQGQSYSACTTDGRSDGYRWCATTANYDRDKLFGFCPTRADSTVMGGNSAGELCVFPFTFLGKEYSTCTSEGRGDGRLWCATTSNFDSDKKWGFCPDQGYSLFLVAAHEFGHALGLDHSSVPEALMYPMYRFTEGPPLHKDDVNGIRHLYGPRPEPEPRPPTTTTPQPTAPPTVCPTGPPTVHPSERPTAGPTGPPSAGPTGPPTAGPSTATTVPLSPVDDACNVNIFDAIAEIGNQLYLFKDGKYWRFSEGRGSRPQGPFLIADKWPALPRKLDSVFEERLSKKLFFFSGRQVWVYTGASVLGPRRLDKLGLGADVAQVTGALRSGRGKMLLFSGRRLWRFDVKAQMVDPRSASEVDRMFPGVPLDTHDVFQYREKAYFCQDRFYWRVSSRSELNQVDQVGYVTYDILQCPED

| Structure (SMILES) | IC50 [1, 8] [µM] | IC50 [2] [µM] | IC50 [3] [µM] | IC50 [4] [µM] | IC50 [5] [µM] | IC50 [6] [µM] | IC50 [7] [µM] | IC50 [1, 9] [µM] |
| --- | --- | --- | --- | --- | --- | --- | --- | --- |
| O=C(CCc1ccccc1)c1cn2c(=O)n(Cc3ccccc3)c(=O)cc2s1 [Example 8, 6-Benzyl-2-(3-phenyl-propionyl)-thiazolo[3,2-c]pyrimidine-5,7-dione] | – | > 100 | > 100 | 3.2 | > 30 | > 100 | 8.8 | 6.6 |
| Cc1c(C(=O)OCc2ccccc2)sc2cc(=O)n(Cc3ccccc3)c(=O)n12 [Example 19, 6-Benzyl-3-methyl-5,7-dioxo-6,7-dihydro-5H-thiazolo[3,2-c]pyrimidine-2-carboxylic acid benzyl ester] | – | > 100 | > 100 | > 100 | 8.8 | > 30 | > 30 | 21 |

Results, then the compound that gave them:

| IC50 [1, 8] [µM] | IC50 [2] [µM] | IC50 [3] [µM] | IC50 [4] [µM] | IC50 [5] [µM] | IC50 [6] [µM] | IC50 [7] [µM] | IC50 [1, 9] [µM] | Structure (SMILES) |
| --- | --- | --- | --- | --- | --- | --- | --- | --- |
| 14.3 | > 100 | > 100 | > 100 | > 100 | > 100 | > 100 | – | O=c1cc2sc(C(O)CCc3ccccc3)cn2c(=O)n1Cc1ccccc1 (centres unmarked) [Example 5, 6-Benzyl-2-(1-hydroxy-3-phenyl-propyl)-thiazolo[3,2-c]pyrimidine-5,7-dione] |
| 23 | > 30 | > 30 | 3.5 | 9.2 | > 30 | 7.3 | – | O=C(Nc1ccc(-c2ccccc2)cc1)c1cn2c(=O)n(Cc3ccccc3)c(=O)cc2s1 [Example 6, 6-Benzyl-5,7-dioxo-6,7-dihydro-5H-thiazolo[3,2-c]pyrimidine-2-carboxylic acid biphenyl-4-ylamide] |
| – | > 30 | > 30 | 10 | > 30 | > 30 | > 30 | 0.0175 | COc1cc(CNC(=O)c2cn3c(=O)n(Cc4ccccc4)c(=O)c(C)c3s2)ccn1 [Example 37] |
